Experimental data from patent US9546164B2 (GENENTECH, INC., priority 2013, dated 2017).
Counter-ions that a name gives are not always drawn. Like-named read-outs stand apart in the source and are kept apart here.

Biological target: hNav1.7 (Homo sapiens (Human), UniProt Q15858)
Experiment: Tritiated sulfonamide competitive binding to membranes from cells expressing hNav1.7 and the β1 subunit;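 further: Filter-bound radioactivity counted by liquid scintillation, nonspecific binding defined with excess unlabelled ligand, IC50 fitted to percent inhibition of specific binding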
[1] = read-out: Ligand Binding Assay, 100 pM [3H]compound, membranes with hNav1.7 and β1 subunit, 18 h, room temperature

Chain of hNav1.7 (Q15858 other isoform, or with tags, fused parts or gaps): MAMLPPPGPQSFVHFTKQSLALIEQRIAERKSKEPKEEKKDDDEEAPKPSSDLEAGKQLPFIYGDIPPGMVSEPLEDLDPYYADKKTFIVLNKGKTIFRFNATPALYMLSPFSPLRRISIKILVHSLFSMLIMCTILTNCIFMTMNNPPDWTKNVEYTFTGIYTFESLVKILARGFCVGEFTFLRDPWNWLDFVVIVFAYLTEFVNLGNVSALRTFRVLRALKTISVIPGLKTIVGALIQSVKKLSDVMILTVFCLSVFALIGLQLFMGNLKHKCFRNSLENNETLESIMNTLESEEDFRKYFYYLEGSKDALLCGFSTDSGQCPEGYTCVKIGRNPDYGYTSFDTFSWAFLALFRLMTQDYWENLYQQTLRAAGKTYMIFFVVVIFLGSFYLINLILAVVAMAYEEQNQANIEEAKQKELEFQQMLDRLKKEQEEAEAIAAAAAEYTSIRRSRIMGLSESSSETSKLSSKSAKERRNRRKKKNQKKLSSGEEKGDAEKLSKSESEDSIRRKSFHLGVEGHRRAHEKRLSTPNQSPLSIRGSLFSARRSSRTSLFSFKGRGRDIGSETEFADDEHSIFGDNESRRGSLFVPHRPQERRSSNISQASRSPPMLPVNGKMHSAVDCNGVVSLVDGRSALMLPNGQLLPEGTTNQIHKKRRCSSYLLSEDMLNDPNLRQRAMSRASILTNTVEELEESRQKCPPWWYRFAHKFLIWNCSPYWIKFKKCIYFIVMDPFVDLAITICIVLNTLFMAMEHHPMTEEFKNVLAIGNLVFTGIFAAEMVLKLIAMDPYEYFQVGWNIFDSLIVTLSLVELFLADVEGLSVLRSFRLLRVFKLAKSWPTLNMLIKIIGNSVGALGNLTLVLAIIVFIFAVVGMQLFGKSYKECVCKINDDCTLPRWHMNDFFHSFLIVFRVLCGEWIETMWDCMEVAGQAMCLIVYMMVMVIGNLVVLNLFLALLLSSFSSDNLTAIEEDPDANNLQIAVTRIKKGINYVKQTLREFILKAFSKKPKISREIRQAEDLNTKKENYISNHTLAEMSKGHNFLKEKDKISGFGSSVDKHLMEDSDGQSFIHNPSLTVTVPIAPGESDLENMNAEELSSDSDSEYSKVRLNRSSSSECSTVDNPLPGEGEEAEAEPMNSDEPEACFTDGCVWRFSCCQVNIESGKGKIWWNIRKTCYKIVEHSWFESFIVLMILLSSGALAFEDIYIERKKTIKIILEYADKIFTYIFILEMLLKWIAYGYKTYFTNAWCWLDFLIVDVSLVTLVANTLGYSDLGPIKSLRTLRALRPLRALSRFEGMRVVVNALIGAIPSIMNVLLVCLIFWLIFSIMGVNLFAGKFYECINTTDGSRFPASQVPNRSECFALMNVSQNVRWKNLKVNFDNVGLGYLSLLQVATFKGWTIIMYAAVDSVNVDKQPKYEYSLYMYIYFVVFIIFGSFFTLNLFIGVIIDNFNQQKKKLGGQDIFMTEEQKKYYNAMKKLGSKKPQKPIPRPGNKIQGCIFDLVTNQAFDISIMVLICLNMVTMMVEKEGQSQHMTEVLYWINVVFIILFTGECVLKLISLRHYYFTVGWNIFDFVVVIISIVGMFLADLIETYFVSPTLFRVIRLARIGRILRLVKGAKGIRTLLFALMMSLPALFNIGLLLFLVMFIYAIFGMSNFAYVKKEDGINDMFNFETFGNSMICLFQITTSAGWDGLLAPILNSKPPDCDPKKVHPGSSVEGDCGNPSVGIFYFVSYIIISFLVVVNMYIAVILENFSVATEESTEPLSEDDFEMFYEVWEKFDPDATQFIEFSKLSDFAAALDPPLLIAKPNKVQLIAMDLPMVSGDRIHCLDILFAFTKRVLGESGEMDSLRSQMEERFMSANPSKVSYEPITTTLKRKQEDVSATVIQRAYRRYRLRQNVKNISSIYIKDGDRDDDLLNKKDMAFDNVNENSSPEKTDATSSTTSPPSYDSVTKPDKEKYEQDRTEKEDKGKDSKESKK
Chain of hNav1.7 (Q07699 19-218 partner): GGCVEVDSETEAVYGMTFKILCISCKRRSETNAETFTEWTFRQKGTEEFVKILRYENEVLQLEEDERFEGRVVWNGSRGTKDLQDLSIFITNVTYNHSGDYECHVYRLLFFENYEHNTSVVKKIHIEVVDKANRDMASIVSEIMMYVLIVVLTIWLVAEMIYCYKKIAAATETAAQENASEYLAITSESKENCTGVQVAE
Method: Tritiated Sulfonamide Binding to Membranes
Preparation of membranes containing recombinantly expressed sodium channels: Frozen recombinant cell pellets were thawed on ice and diluted to 4 times the cell pellet weight with ice cold 50 mM TrisHCl, pH 7.4 buffer. The cell suspensions were homogenized on ice using a motorized glass douncehomogeniser. Homogenates were further diluted 8.4 times with ice cold 50 mM TrisHCl, pH 7.4 buffer and then centrifuged at 200×g at 4° C. for 15 min. The supersatants were collected and centrifuged at 10000×g at 4° C. for 50 min. The pellets were then re-suspended in 100 mMNaCl, 20 mM TrisHCl, pH. 7.4 buffer containing 1% v/v protease inhibitors (Calbiochem) and re-homogenized on ice. The homogenized membranes were then processed through a syringe equipped with a 26 gauge needle. Protein concentrations were determined by Bradford Assay and the membranes were stored at −80° C.
Radioligand Binding Studies: Saturation experiments. A representative compound of formula (I) having a methyl group was tritiated. Three tritiums were incorporated in place of methyl hydrogens to generate [^3H]compound. Binding of this radioligand was preformed in 5 mL borosilicate glass test tubes at room temperature. Binding was initiated by adding membranes to increasing concentrations of [^3H]compound in 100 mM NaCl, 20 mM TrisHCl, pH 7.4 buffer containing 0.01% w/v bovine serum albumin (BSA) for 18 h. Non-specific binding was determined in the presence of 1 μM unlabelled compound. After 18 h, the reactants were filtered through GF/C glass fiber filters presoaked in 0.5% w/v polyethylene imine. Filters were washed with 15 mL ice cold 100 mM NaCl, 20 mM TrisHCl, pH7.4 buffer containing 0.25% BSA to separate bound from free ligand. [^3H]compound bound to filters was quantified by liquid scintillation counting.
Competitive binding experiments: Binding reactions were preformed its 96-well polypropylene plates at room temperature for 18 h. In 360 μL, membranes were incubated with 100 pM [^3H]compound and increasing concentrations of Test Compound. Non-specific binding was defined in the presence of 1 μM unlabelled compound. Reactions were transferred and filtered through 96-well glass fiber/C filter plates presoaked with 0.5% polyethylene imine. The filtered reactions were washed 5 times with 200 μL ice cold butter containing 0.25% BSA. Bound radioactivity was determined by liquid scintillation counting.
Data Analysis: For saturation experiments, non-specific binding was subtracted from total binding to provide specific binding and these values were recalculated in terms of pmol ligand bound per mg protein. Saturation curves were constructed and dissociation constants were calculated using the single site ligand binding model: Beq=(Bmax*X)/(X+KD), where Beq is the amount of ligand bound at equilibrium, Bmax is the maximum receptor density, Kd is the dissociation constant for the ligand, and X is the tree ligand concentration. For competition studies percent inhibition was determined and IC50 values were calculated using a 4 parameter logistic model (% inhibition=(A+((B−A)/(1+((x/C)^D)))) using XLfit, where A and B are the maximal and minimum inhibition respectively, C is the IC50 concentration and D is the (Hill) slope.

SMILES | IC50 [1] [nM] | IC50 [nM]
CS(=O)(=O)NC(=O)c1cc(C2CC2)c(CN2CCC(Oc3ncc(C(F)(F)F)cc3Cl)CC2)cc1F [Example 523, 4-((4-((3-chloro-5-(trifluoromethyl)pyridin-2-yl)oxy)piperidin-1-yl)methyl)-5-cyclopropyl-2-fluoro-N-(methylsulfonyl)benzamide, trifluoroacetic acid salt] | – | 5.8
CS(=O)(=O)NC(=O)c1cc(C2CC2)c(OCC2CN([C@@H](c3ccccc3)c3cccnc3)C2)cc1F [Example 82] | 408 | –
O=C(NS(=O)(=O)C1CC1)c1cc(C2CC2)c(CN2CCC(Oc3cccc(C(F)(F)F)c3)CC2)cc1F [Example 502, trifluoroacetic acid salt] | 6.8 | –
CS(=O)(=O)NC(=O)c1cc(C2CC2)c(OCC2CCN(Cc3ccccc3F)CC2)cc1F [Example 127, 5-Cyclopropyl-2-fluoro-4-((1-(2-fluorobenzyl)piperidin-4-yl)methoxy)-N-(methylsulfonyl)benzamide] | 578 | –
C[C@H](c1ccc(F)cc1)N1CCC[C@@H](Oc2cc(F)c(C(=O)NS(C)(=O)=O)cc2C2CC2)C1 [Example 316, 5-cyclopropyl-2-fluoro-4-(((R)-1-((R)-1-(4-fluorophenyl)ethyl)piperidin-3-yl)oxy)-N-(methylsulfonyl)benzamide] | 37.2 | –
Cc1cc(F)ccc1S(=O)(=O)N1CCC(COc2cc(F)c(C(=O)NS(C)(=O)=O)cc2C2CC2)CC1 [Example 386, 5-cyclopropyl-2-fluoro-4-((1-((4-fluoro-2-methylphenyl)sulfonyl)piperidin-4-yl)methoxy)-N-(methylsulfonyl)benzamide] | 52.1 | –
CS(=O)(=O)NC(=O)c1cc(C2CC2)c(CN2CCO[C@@H](Cc3ccc(Cl)c(Cl)c3)C2)cc1F [Example 461, (S)-5-cyclopropyl-4-((2-(3,4-dichlorobenzyl)morpholino)methyl)-2-fluoro-N-(methylsulfonyl)benzamide] | 42.1 | –
Cc1nc(CN2CCC(COc3cc(F)c(C(=O)NS(=O)(=O)C4CC4)cc3C3CC3)CC2)cs1 [Example 354, 5-cyclopropyl-N-(cyclopropylsulfonyl)-2-fluoro-4-((1-((2-methylthiazol-4-yl)methyl)piperidin-4-yl)methoxy)benzamide, trifluoroacetic acid salt] | 2670 | –
CS(=O)(=O)N1CCC(COc2cc(F)c(C(=O)NS(=O)(=O)C3CC3)cc2C2CC2)CC1 [Example 394, 5-cyclopropyl-N-(cyclopropylsulfonyl)-2-fluoro-4-((1-(methylsulfonyl)piperidin-4-yl)methoxy)benzamide] | 6010 | –
O=C(NS(=O)(=O)C1CC1)c1cc(C2CC2)c(CN2CCC(OCc3cc(Cl)cc(Cl)c3)CC2)cc1F [Example 512, 5-cyclopropyl-N-(cyclopropylsulfonyl)-4-((4-((3,5-dichlorobenzyl)oxy)piperidin-1-yl)methyl)-2-fluorobenzamide, trifluoroacetic acid salt] | – | 16.7
CS(=O)(=O)NC(=O)c1cc(C2CC2)c(OCC2CCN(Cc3ccc(C(F)(F)F)cc3)CC2)cc1F [Example 126] | 282 | –
O=C(NS(=O)(=O)C1CC1)c1cc(Cl)c(O[C@@H]2CCCN(Cc3ccc(F)cc3Cl)C2)cc1F.O=C(O)C(Cl)(Cl)Cl [Example 39, (R)-5-chloro-4-((1-(2-chloro-4-fluorobenzyl)piperidin-3-yl)oxy)-N-(cyclopropylsulfonyl)-2-fluorobenzamide, trichloroacetic acid salt] | – | 6.8
CS(=O)(=O)NC(=O)c1cc(C2CC2)c(OCC2CN([C@H](c3ccccc3)c3cccnc3)C2)cc1F [Example 81, (R)-5-Cyclopropyl-2-fluoro-N-(methylsulfonyl)-4-((1-(phenyl(pyridin-3-yl)methyl)azetidin-3-yl)methoxy)benzamide] | 630 | –
CC1(C)CO[C@H](Cc2cc(Cl)cc(Cl)c2)CN1Cc1cc(F)c(C(=O)NS(C)(=O)=O)cc1C1CC1 [Example 469, (R)-5-cyclopropyl-4-((2-(3,5-dichlorobenzyl)-5,5-dimethylmorpholino)methyl)-2-fluoro-N-(methylsulfonyl)benzamide, trifluoroacetic acid salt] | 98.9 | –
CC(C)N(C(=O)CN1CCC[C@@H](Oc2cc(F)c(C(=O)NS(C)(=O)=O)cc2C2CC2)C1)C(C)C [Example 179] | 1800 | –
C[C@H](c1cc(Cl)cc(Cl)c1)N1C[C@@H]2C[C@H]1CN2Cc1cc(F)c(C(=O)NS(=O)(=O)C2CC2)cc1C1CC1 (single isomer, unassigned) [Example 563, trifluoroacetic acid salt] | – | 4.2

The remaining compounds from weak to strong by IC50 [1], led by results:

IC50 [1] [nM] | SMILES | IC50 [nM]
30.1 | C[C@H](c1cc(Cl)cc(Cl)c1)N1CC(COc2cc(F)c(C(=O)NS(C)(=O)=O)cc2C2CC2)C1 [Example 121, (R)-5-Cyclopropyl-4-((1-(1-(3,5-dichlorophenyl)ethyl)azetidin-3-yl)methoxy)-2-fluoro-N-(methylsulfonyl)benzamide] | –
26 | O=C(NS(=O)(=O)C1CC1)c1cc(C2CC2)c(OCC2CCN(C(=O)c3cc(Cl)cc(Cl)c3)CC2)cc1F [Example 254, 5-Cyclopropyl-N-(cyclopropylsulfonyl)-4-((1-(3,5-dichlorobenzoyl)piperidin-4-yl)methoxy)-2-fluorobenzamide] | –
22.7 | O=C(NS(=O)(=O)N1CCC1)c1cc(Cl)c(OCC2CCN(Cc3cc(Cl)cc(OC(F)(F)F)c3)CC2)cc1F [Example 408, N-(azetidin-1-ylfulfonyl)-5-chloro-4-((1-(3-chloro-5-(trifluoromethoxy)benzyl)piperidin-4-yl)methoxy)-2-fluorobenzamide, trifluoroacetic acid suit] | –
19 | CS(=O)(=O)NC(=O)c1cc(C2CC2)c(O[C@@H]2CCCN(Cc3cc(Cl)ccc3O)C2)cc1F [Example 427, (R)-4-((1-(5-chloro-2-hydroxybenzyl)piperidin-3-yl)oxy)-5-cyclopropyl-2-fluoro-N-(methylsulfonyl)benzamide, trifluoroacetic acid salt] | –
16.3 | CS(=O)(=O)NC(=O)c1cc(C2CC2)c(OCC2CCN(Cc3ccc(F)cc3Cl)CC2)cc1F [Example 105, 4-((1-(2-Chloro-4-fluorobenzyl)piperidin-4-yl)methoxy)-5-cyclopropyl-2-fluoro-N-(methylsulfonyl)benzamide] | –
15 | CC(c1cccc(Cl)c1)N1CCC(COc2cc(F)c(C(=O)NS(C)(=O)=O)cc2C2CC2)CC1 (stereo not shown) [Example 148, 4-((1-(1-(3-Chlorophenyl)ethyl)piperidin-4-yl)methoxy)-5-cyclopropyl-2-fluoro-N-(methylsulfonyl)benzamide] | –
14.6 | O=C(NS(=O)(=O)C1CC1)c1cc(C2CC2)c(OCC2CCN(S(=O)(=O)c3cccc(C(F)(F)F)c3)CC2)cc1F [Example 375, 5-cyclopropyl-N-(cyclopropylsulfonyl)-2-fluoro-4-((1-((3-(trifluoromethyl)phenyl)sulfonyl)piperidin-4-yl)methoxy)benzamide] | –
11 | C[C@@H](c1ccc(F)cc1Cl)N1CCC(COc2cc(F)c(C(=O)NS(C)(=O)=O)cc2C2CC2)CC1 [Example 243] | –
9.3 | CS(=O)(=O)NC(=O)c1cc(C2CC2)c(OCC2CCN(Cc3cc(F)c(F)c(Cl)c3)CC2)cc1F [Example 456, 4-((1-(3-chloro-4,5-difluorobenzyl)piperidin-4-yl)methoxy)-5-cyclopropyl-2-fluoro-N-(methylsulfonyl)benzamide, trifluoroacetic acid salt] | –
8 | O=C(NS(=O)(=O)C1CC1)c1cc(C2CC2)c(CN2CCC[C@H](Oc3cc(Cl)cc(Cl)c3)C2)cc1F [Example 53, (S)-5-cyclopropyl-N-(cyclopropylsulfonyl)-4-((3-(3,5-dichlorophenoxy)-piperidin-1-yl)methyl)-2-fluorobenzamide] | –
7.8 | CCS(=O)(=O)NC(=O)c1cc(C2CC2)c(OC[C@@H]2CC[C@@H](C)N([C@H](C)c3cc(Cl)cc(Cl)c3)C2)cc1F [Example 345, 5-cyclopropyl-4-(((3R,6R)-1-((R)-1-(3,5-dichlorophenyl)ethyl)-6-methylpiperidin-3-yl)methoxy)-N-(ethylsulfonyl-2-fluorobenzamide, trifluoroacetic acid salt] | –
5.8 | CC(C)Nc1ccc(F)cc1CN1CCC(COc2cc(F)c(C(=O)NS(=O)(=O)C3CC3)cc2C2CC2)CC1 [Example 356, 5-cyclopropyl-N-(cyclopropylsulfonyl)-2-fluoro-4-((1-(5-fluoro-2-(isopropylamino)benzyl)piperidin-4-yl)methoxy)benzamide, trifluoroacetic acid salt] | –
5.2 | CS(=O)(=O)NC(=O)c1cc(C2CC2)c(OCC2CCN(Cc3ccc(F)cc3C(F)(F)F)CC2)cc1F [Example 586, 5-cyclopropyl-2-fluoro-4-((1-(4-fluoro-2-(trifluoromethyl)benzyl)piperidin-4-yl)methoxy)-N-(methylsulfonyl)benzamide] | –
4.5 | CS(=O)(=O)NC(=O)c1cc(C2CC2)c(OCC2CCN([C@@H](c3cc(Cl)cc(Cl)c3)C(F)F)CC2)cc1F (single isomer, unassigned) [Example 224] | –
3.5 | CC1(COc2cc(F)c(C(=O)NS(C)(=O)=O)cc2C2CC2)CCN(Cc2ccc(F)cc2C(F)(F)F)CC1 [Example 130, 5-cyclopropyl-2-fluoro-4-((1-(4-fluoro-2-(trifluoromethyl)benzyl)-4-methylpiperidin-4-yl)methoxy)-N-(methylsulfonyl)benzamide] | –
3.5 | CCS(=O)(=O)NC(=O)c1cc(C2CC2)c(OCC2(C)CN([C@H](C)c3cc(Cl)cc(Cl)c3)C2)cc1F (single isomer, unassigned) [Example 288] | –
3.1 | CS(=O)(=O)NC(=O)c1cc(C2CC2)c(O[C@@H]2CCCN(Cc3ccccc3-c3ccccc3)C2)cc1F [Example 442, (R)-4-((1-([1,1′-biphenyl]-2-ylmethyl)piperidin-3-yl)oxy)-5-cyclopropyl-2-fluoro-N-(methylsulfonyl)benzamide, trifluoroacetic acid salt] | –
2.87 | COCC(c1cc(Cl)cc(Cl)c1)N1CCC(COc2cc(F)c(C(=O)NS(C)(=O)=O)cc2C2CC2)CC1 (stereo not shown) [Example 90, 5-Cyclopropyl-4-((1-(1-(3,5-dichlorophenyl)-2-methoxyethyl)piperidin-4-yl)methoxy)-2-fluoro-N-(methylsulfonyl)benzamide] | –
